Patent US20210009542A1 (Calico Life Sciences LLC, priority 2018, published 2021)
pIC50: −log10 of the molar value. Like-named read-outs stand apart in the source and are kept apart here.

How the values were obtained:
[1] = molecular target: T1, His tagged PTPN2 (TC45) protein (Homo sapiens, UniProt P17706); test: Mobility shift assay (MSA) for potency of PTPN2 inhibitors; format: biochemical; conditions: read-out: PTPN2 MSA IC50
T1 construct: made in house
T1 sequence (P17706 with tags, fused parts or gaps isoform P17706-2): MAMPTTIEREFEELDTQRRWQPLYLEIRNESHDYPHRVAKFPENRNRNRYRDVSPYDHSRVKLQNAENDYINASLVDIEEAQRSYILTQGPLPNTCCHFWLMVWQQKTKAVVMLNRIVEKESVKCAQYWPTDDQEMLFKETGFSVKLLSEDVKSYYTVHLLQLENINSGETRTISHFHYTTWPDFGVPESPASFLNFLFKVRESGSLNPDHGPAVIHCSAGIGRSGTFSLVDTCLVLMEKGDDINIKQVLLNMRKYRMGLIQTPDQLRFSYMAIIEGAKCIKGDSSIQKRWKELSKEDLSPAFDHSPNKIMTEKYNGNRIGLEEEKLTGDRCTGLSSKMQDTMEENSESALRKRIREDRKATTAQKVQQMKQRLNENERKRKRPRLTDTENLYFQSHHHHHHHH
Procedure, shortened: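 His-tagged PTPN2 TC45 (0.5 nM) was preincubated with compound (12-point, 1:3) for 10 min at room temperature in 50 mM HEPES pH 7.5, 1 mM EGTA, 10 mM EDTA, 0.01% Tween 20, 2 mM DTT. OG488-labelled phospho-insulin-receptor peptide ([…]) was then added for 10 min. After quenching, dephosphorylation was measured by microfluidic mobility shift and IC50 derived from % inhibition.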

[2] = test system: B16F10 mouse melanoma cells; test: B16F10 IFNγ-induced cellular growth inhibition assay; format: cell-based; conditions: Mus musculus, B16-F10, 33 μM compound
Protocol: B16F10 mouse melanoma cells (ATCC Cat ^#CRL-6475, Manassas, Va.) were seeded at a density of 500 cells per well in a 384-well clear bottom plate (Corning Cat^# 3765, Corning, N.Y.) in 25 μL total volume of DMEM+10% FBS (Sigma Cat ^#D6429 and Sigma Cat ^#F4135, St. Louis, Mo.). Cells were allowed to adhere overnight at 37° C.+5% CO2. On the following day, 12.5 μL of mouse IFNγ (RD systems Cat485-MI/CF, Minneapolis, Minn.) was added to half of the plate (columns 13-24) at a concentration of 2 ng/mL for a final assay concentration of 0.5 ng/mL of IFNγ. Media only (12.5 μL of DMEM+10% FBS) was added to the remainder of the plate (columns 1-12). Next, compounds resuspended in DMSO (Sigma Cat ^#D2650) at 100 mM were diluted in semi-log dilutions in DMSO ranging from 100 mM to 0.001 mM and DMSO only controls were included. The compound/DMSO dilutions were further diluted 1:250 in DMEM+10% FBS, and 12.5 μL of these dilutions were added in triplicates to cells of both treatment arms (with and without IFNγ). Final compound concentrations ranged from 100 μM to 0.001 μM with a final DMSO concentration of 0.1%. Compounds were only dosed in the inner 240 wells, avoiding the outer 2-well perimeter of the plate to minimize edge effects. Finally, the plate was loaded into an IncuCyte® S3 Live Cell Analysis System (Essen Bioscience-Sartorius, Ann Arbor, Mich.) maintained in a 37° C.+5% CO2 incubator, allowed to equilibrate for 2 hours, and imaged every 6 hours for 5 days. Confluence over time for compound dilutions in the presence and absence of IFNγ was measured. Growth inhibition values were obtained when the “DMSO/no IFNγ” control reached confluence >95%. At these time points, the percent growth inhibition of each compound at the indicated concentration was calculated relative to the “DMSO/with IFNγ” control.

[3] = +0.5 ng/mL IFNγ, relative to DMSO control, read-out: % B16F10 growth inhibition (+0.5 ng/mL IFNγ) @ 33 μM
[4] = no IFNγ, read-out: % B16F10 growth inhibition (no IFNγ) @ 33 μM

In the case of `C[C@H](O)CCOc1ccc2cc(O)c(N3CC(=O)NS3(=O)=O)c(F)c2c1` [Compound 147, 5-{1-fluoro-3-hydroxy-7-[(3S)-3-hydroxybutoxy]naphthalen-2-yl}-1λ^6,2,5-thiadiazolidine-1,1,3-trione], the pIC50 [1] was greater than 9.00, the inhibition at 33 µM [2, 3] was greater than 90% and the inhibition at 33 µM [2, 4] was less than 25%.
`O=C1CN(c2c(O)cc3ccc(-c4cnn(S(=O)(=O)C5CC5)c4)cc3c2F)S(=O)(=O)N1` [Compound 303, 5-{7-[1-(cyclopropanesulfonyl)-1H-pyrazol-4-yl]-1-fluoro-3-hydroxynaphthalen-2-yl}-1λ^6,2,5-thiadiazolidine-1,1,3-trione] showed a pIC50 [1] greater than 9.00, an inhibition at 33 µM [2, 3] of 60 to 90% and an inhibition at 33 µM [2, 4] of less than 25%.
`CCC(=O)CCOc1ccc2cc(O)c(N3CC(=O)NS3(=O)=O)c(F)c2c1` [Compound 155, 5-{1-fluoro-3-hydroxy-7-[(3-oxopentyl)oxy]naphthalen-2-yl}-1λ^6,2,5-thiadiazolidine-1,1,3-trione] showed a pIC50 [1] greater than 9.00, an inhibition at 33 µM [2, 3] of 60 to 90% and an inhibition at 33 µM [2, 4] of 60 to 90%.
Work on `CC(C)(N)CCOc1ccc2cc(O)c(N3CC(=O)NS3(=O)=O)c(F)c2c1` [Compound 165, 5-[7-(3-amino-3-methylbutoxy)-1-fluoro-3-hydroxynaphthalen-2-yl]-1λ^6,2,5-thiadiazolidine-1,1,3-trione] yielded a pIC50 [1] of 8.00 to 9.00, an inhibition at 33 µM [2, 3] greater than 90% and an inhibition at 33 µM [2, 4] of less than 25%.
`O=C1CN(c2c(O)cc3ccc(NCCNS(=O)(=O)C4CC4)cc3c2F)S(=O)(=O)N1` [Compound 125, N-(2-{[8-fluoro-6-hydroxy-7-(1,1,4-trioxo-1λ^6,2,5-thiadiazolidin-2-yl)naphthalen-2-yl]amino}ethyl)cyclopropanesulfonamide] was tested, and the pIC50 [1] was 8.00 to 9.00, the inhibition at 33 µM [2, 3] was 60 to 90% and the inhibition at 33 µM [2, 4] was less than 25%.
`CC(C)Oc1ccc2cc(O)c(N3CC(=O)NS3(=O)=O)c(F)c2c1` [Compound 279, 5-{1-fluoro-3-hydroxy-7-[(propan-2-yl)oxy]naphthalen-2-yl}-1λ^6,2,5-thiadiazolidine-1,1,3-trione] was tested, and the pIC50 [1] was 8.00 to 9.00, the inhibition at 33 µM [2, 3] was 60 to 90% and the inhibition at 33 µM [2, 4] was less than 25%.
Work on `O=C1CN(c2c(O)cc3ccc(OCC4CC4)cc3c2F)S(=O)(=O)N1` [Compound 250, 5-[7-(cyclopropylmethoxy)-1-fluoro-3-hydroxynaphthalen-2-yl]-1λ^6,2,5-thiadiazolidine-1,1,3-trione] yielded a pIC50 [1] of 8.00 to 9.00, an inhibition at 33 µM [2, 3] of 60 to 90% and an inhibition at 33 µM [2, 4] of less than 25%.
For `CCOCCCOc1ccc2cc(O)c(N3CC(=O)NS3(=O)=O)c(F)c2c1` [Compound 216, 5-[7-(3-ethoxypropoxy)-1-fluoro-3-hydroxynaphthalen-2-yl]-1λ^6,2,5-thiadiazolidine-1,1,3-trione], the pIC50 [1] was 8.00 to 9.00, the inhibition at 33 µM [2, 3] was 25 to 59% and the inhibition at 33 µM [2, 4] was less than 25%.
`N#CC1(CCOc2ccc3cc(O)c(N4CC(=O)NS4(=O)=O)c(F)c3c2)CC1` [Compound 159, 1-(2-{[8-fluoro-6-hydroxy-7-(1,1,4-trioxo-1λ^6,2,5-thiadiazolidin-2-yl)naphthalen-2-yl]oxy}ethyl)cyclopropane-1-carbonitrile] was tested, and the pIC50 [1] was greater than 9.00, the inhibition at 33 µM [2, 3] was greater than 90% and the inhibition at 33 µM [2, 4] was less than 25%.
With `CS(=O)(=O)N1CC[C@@H](Nc2ccc3cc(O)c(N4CC(=O)NS4(=O)=O)c(F)c3c2)C1` [Compound 304, 5-(1-fluoro-3-hydroxy-7-{[(3R)-1-(methanesulfonyl)pyrrolidin-3-yl]amino}naphthalen-2-yl)-1λ^6,2,5-thiadiazolidine-1,1,3-trione] the pIC50 [1] was 8.00 to 9.00, the inhibition at 33 µM [2, 3] was greater than 90% and the inhibition at 33 µM [2, 4] was less than 25%.
In the case of `O=C1CN(c2c(O)cc3ccc(CC4CN(S(=O)(=O)C5CC5)C4)cc3c2F)S(=O)(=O)N1` [Compound 256, 5-(7-{[1-(cyclopropanesulfonyl)azetidin-3-yl]methyl}-1-fluoro-3-hydroxynaphthalen-2-yl)-1λ^6,2,5-thiadiazolidine-1,1,3-trione], the pIC50 [1] was greater than 9.00, the inhibition at 33 µM [2, 3] was 25 to 59% and the inhibition at 33 µM [2, 4] was less than 25%.
For `O=C1CN(c2c(O)cc3ccc(CCC4CC4)cc3c2F)S(=O)(=O)N1` [Compound 209, 5-[7-(2-cyclopropylethyl)-1-fluoro-3-hydroxynaphthalen-2-yl]-1λ^6,2,5-thiadiazolidine-1,1,3-trione], the pIC50 [1] was 8.00 to 9.00, the inhibition at 33 µM [2, 3] was 60 to 90% and the inhibition at 33 µM [2, 4] was less than 25%.
With `COC/C=C/c1ccc2cc(O)c(N3CC(=O)NS3(=O)=O)c(F)c2c1` [Compound 245, 5-{1-fluoro-3-hydroxy-7-[(1E)-3-methoxyprop-1-en-1-yl]naphthalen-2-yl}-1λ^6,2,5-thiadiazolidine-1,1,3-trione] the pIC50 [1] was 8.00 to 9.00, the inhibition at 33 µM [2, 3] was 60 to 90% and the inhibition at 33 µM [2, 4] was less than 25%.
Work on `CC(C)(C#N)CCOc1ccc2cc(O)c(N3CC(=O)NS3(=O)=O)c(F)c2c1` [Compound 120, 4-{[8-fluoro-6-hydroxy-7-(1,1,4-trioxo-1λ^6,2,5-thiadiazolidin-2-yl)naphthalen-2-yl]oxy}-2,2-dimethylbutanenitrile] yielded a pIC50 [1] greater than 9.00, an inhibition at 33 µM [2, 3] of 60 to 90% and an inhibition at 33 µM [2, 4] of less than 25%.
Work on `CCOCCOc1ccc2cc(O)c(N3CC(=O)NS3(=O)=O)c(F)c2c1` [Compound 246, 5-[7-(2-ethoxyethoxy)-1-fluoro-3-hydroxynaphthalen-2-yl]-1λ^6,2,5-thiadiazolidine-1,1,3-trione] yielded a pIC50 [1] of 8.00 to 9.00, an inhibition at 33 µM [2, 3] of 60 to 90% and an inhibition at 33 µM [2, 4] of less than 25%.
With `O=C1CN(c2c(O)cc3ccc(NCCC4CC4)cc3c2F)S(=O)(=O)N1` [Compound 224, 5-{7-[(2-cyclopropylethyl)amino]-1-fluoro-3-hydroxynaphthalen-2-yl}-1λ^6,2,5-thiadiazolidine-1,1,3-trione] the pIC50 [1] was 8.00 to 9.00, the inhibition at 33 µM [2, 3] was greater than 90% and the inhibition at 33 µM [2, 4] was less than 25%.
For `O=C1CN(c2c(O)cc3ccc(NCCc4ccccc4)cc3c2F)S(=O)(=O)N1` [Compound 164, 5-{1-fluoro-3-hydroxy-7-[(2-phenylethyl)amino]naphthalen-2-yl}-1λ^6,2,5-thiadiazolidine-1,1,3-trione], the pIC50 [1] was greater than 9.00, the inhibition at 33 µM [2, 3] was greater than 90% and the inhibition at 33 µM [2, 4] was less than 25%.
Work on `CC(C)NC(=O)Oc1ccc2cc(O)c(N3CC(=O)NS3(=O)=O)c(F)c2c1` [Compound 103, 8-fluoro-6-hydroxy-7-(1,1,4-trioxo-1λ^6,2,5-thiadiazolidin-2-yl)naphthalen-2-yl propan-2-ylcarbamate] yielded a pIC50 [1] of 8.00 to 9.00, an inhibition at 33 µM [2, 3] of 60 to 90% and an inhibition at 33 µM [2, 4] of less than 25%.
`O=C1CN(c2c(O)cc3ccc(OCC4CCOCC4)cc3c2F)S(=O)(=O)N1` [Compound 273, 5-{1-fluoro-3-hydroxy-7-[(oxan-4-yl)methoxy]naphthalen-2-yl}-1λ^6,2,5-thiadiazolidine-1,1,3-trione] was tested, and the pIC50 [1] was 8.00 to 9.00, the inhibition at 33 µM [2, 3] was 60 to 90% and the inhibition at 33 µM [2, 4] was less than 25%.
Work on `CC(C)(C)CCNc1ccc2cc(O)c(N3CC(=O)NS3(=O)=O)c(F)c2c1` [Compound 116, 5-{7-[(3,3-dimethylbutyl)amino]-1-fluoro-3-hydroxynaphthalen-2-yl}-1λ^6,2,5-thiadiazolidine-1,1,3-trione] yielded a pIC50 [1] of 8.00 to 9.00, an inhibition at 33 µM [2, 3] greater than 90% and an inhibition at 33 µM [2, 4] of less than 25%.
In the case of `O=C1CN(c2c(O)cc3ccc(OCCN4CCC4)cc3c2F)S(=O)(=O)N1` [Compound 105, 5-{7-[2-(azetidin-1-yl)ethoxy]-1-fluoro-3-hydroxynaphthalen-2-yl}-1λ^6,2,5-thiadiazolidine-1,1,3-trione], the pIC50 [1] was 8.00 to 9.00, the inhibition at 33 µM [2, 3] was 60 to 90% and the inhibition at 33 µM [2, 4] was less than 25%.
In the case of `NCCOc1ccc2cc(O)c(N3CC(=O)NS3(=O)=O)c(F)c2c1` [Compound 309, 5-[7-(2-aminoethoxy)-1-fluoro-3-hydroxynaphthalen-2-yl]-1λ^6,2,5-thiadiazolidine-1,1,3-trione], the pIC50 [1] was 8.00 to 9.00, the inhibition at 33 µM [2, 3] was 60 to 90% and the inhibition at 33 µM [2, 4] was less than 25%.
